pKi: −log10 of the molar value. Where only a bound is given, the exact number is not on record here.

A short description of series [1]: Cytotoxicity against human SH-SY5Y cells after 24 to 72 hrs by MTT assay. The format is cell-based. (Tetrazolium dyes change colour on reduction, which living cells bring about.)
Series [2] addresses Adenosine receptor A2a (Homo sapiens, UniProt P29274). Nature of the series: Displacement of [3H]-ZM-241385 from human adenosine A2A receptor expressed in HEK293 cell membranes after 1 hr by scintillation counting analysis.

Chain of Adenosine receptor A2a (P29274 whole entry): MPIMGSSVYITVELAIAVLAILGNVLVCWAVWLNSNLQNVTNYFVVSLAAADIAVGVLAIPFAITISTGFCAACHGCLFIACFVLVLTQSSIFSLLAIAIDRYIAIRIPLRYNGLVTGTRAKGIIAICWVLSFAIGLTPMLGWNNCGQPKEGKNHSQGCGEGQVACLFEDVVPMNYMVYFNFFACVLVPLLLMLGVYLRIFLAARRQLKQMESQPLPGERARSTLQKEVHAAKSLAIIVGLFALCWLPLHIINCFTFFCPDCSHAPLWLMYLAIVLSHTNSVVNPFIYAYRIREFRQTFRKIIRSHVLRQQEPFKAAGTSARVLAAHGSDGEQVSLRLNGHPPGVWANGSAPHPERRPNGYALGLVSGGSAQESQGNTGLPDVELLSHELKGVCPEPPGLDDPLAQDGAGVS

The CC50 is the concentration at which the toxic effect on the cells reaches its halfway point. For orientation: pKi means the Ki on a negative log10 scale, so that one unit is a factor of ten. Consider `COc1ccc(-c2cn3cc(C(=O)NCCCN4CCOCC4)cc(N)c3n2)cc1OC`, for which, in series [1], the CC50 was > 100 µM. The pKi in series [2] is < 5.00.
For `COc1ccc(-c2cn3cc(C#Cc4ccccc4)cc(N)c3n2)cc1OC` the same measures were 66.7 µM and < 5.00.
As for `COc1ccc(-c2cn3cc(C(=O)NCCCN4CCCCC4)cc(N)c3n2)cc1OC`, half-maximal cytotoxicity in series [1] (CC50) was put at 49.6 µM. Besides, in series [2], the pKi is < 5.00.
In the case of `c1coc(-c2ccc3nc(-c4ccco4)cn3c2)c1`, the midpoint of cytotoxicity in series [1], the CC50, lay at 3 µM. The molecule further showed a negative logarithm of the Ki (pKi) in series [2] of 5.79.
On to `COc1ccc(-c2cn3cc(C(=O)NCCc4ccc(O)cc4)cc(N)c3n2)cc1OC`, for which, in series [1], the half-maximal cytotoxic concentration (CC50) turned out to be 26.9 µM. Also, in series [2], the negative-log Ki (pKi) is < 5.00.
On the same counts, the results for `c1ccc(-c2cn3cc(-c4ccco4)ccc3n2)cc1` are > 100 µM and < 5.00.
On the same counts, the results for `Nc1cc(-c2ccco2)cn2cc(-c3ccccc3)nc12` are 26 µM and 6.38.
On the same counts, the results for `COc1ccc(-c2cn3cc(C(=O)NCCCN4CCN(C)CC4)cc(N)c3n2)cc1OC` are > 100 µM and < 5.00.
Regarding `Nc1cc(-c2ccco2)cn2cc(-c3ccco3)nc12`, the midpoint of cytotoxicity in series [1], the CC50, lay at 2.27 µM. The pKi in series [2] was < 5.00.
On the same counts, the results for `c1coc(-c2cn3ccccc3n2)c1` are > 100 µM and < 5.00.
`COCCOc1ccc(N2CCN(CCNC(=O)c3cc(N)c4nc(-c5ccc(OC)c(OC)c5)cn4c3)CC2)cc1` showed a 50% cytotoxic concentration (CC50) in series [1] of 31.8 µM. Also, the negative logarithm of the Ki (pKi) in series [2] was < 5.00.
For the molecule `Nc1cccn2cc(-c3ccco3)nc12`, the 50% cytotoxic concentration (CC50) in series [1] was > 100 µM. In addition, in series [2], the negative logarithm of the Ki (pKi) is < 5.00.
On the same counts, the results for `COc1ccc(-c2cn3cc(-c4ccco4)ccc3n2)cc1OC` are 30 µM and 6.62.
In series [1], `COc1ccc(-c2cn3cc(-c4ccco4)cc(N)c3n2)cc1OC` yielded a CC50 of 36.4 µM. The molecule further gave a pKi in series [2] of 6.93.
On the same counts, the results for `c1ccc(-c2ccc3nc(-c4ccco4)cn3c2)cc1` are 0.42 µM and < 5.00.
On the same counts, the results for `Nc1cc(-c2ccccc2)cn2cc(-c3ccco3)nc12` are 0.5 µM and < 5.00.
For `COCCOc1ccc(N2CCN(C(=O)c3cc(N)c4nc(-c5ccc(OC)c(OC)c5)cn4c3)CC2)cc1` the same measures were > 100 µM and < 5.00.
Consider `COc1ccc(-c2cn3cc(C(=O)NCCCN4CCNCC4)cc(N)c3n2)cc1OC`, for which, in series [1], the CC50 is > 100 µM. The pKi in series [2] is < 5.00.
On the same counts, the results for `COc1ccc(-c2cn3cc(CCc4ccccc4)cc(N)c3n2)cc1OC` are 50.4 µM and < 5.00.

The record behind these values is ChEMBL document CHEMBL4118172, “Design and synthesis of 2,6-disubstituted-8-amino imidazo[1,2a]pyridines, a promising privileged structure” (Bioorg Med Chem, 2018).
